Structures are written as SMILES. Like-named read-outs stand apart in the source and are kept apart here.

Common to all, as to type: in vivo
Test [1] has as its system Yellow Fever Mosquito (Aedes aegypti, AEDSAE). To be noted: for YFM rating: Table ABC / ABC-DP rating. How it is done:
Certain molecules disclosed in this document were tested against YFM using procedures described in the following paragraph. In the reporting of the results, the “GPA & YFM Rating Table” was used (See Table Section).
Master plates containing 400 μg of a molecule dissolved in 100 μL of dimethyl sulfoxide (DMSO) (equivalent to a 4000 ppm solution) are used. A master plate of assembled molecules contains 15 μL per well. To this plate, 135 μL of a 90:10 water/acetone mixture is added to each well. A robot (Biomek® NXP Laboratory Automation Workstation) is programmed to dispense 15 μL aspirations from the master plate into an empty 96-well shallow plate (“daughter” plate). There are 6 reps (“daughter” plates) created per master. The created “daughter” plates are then immediately infested with YFM larvae.
The day before plates are to be treated, mosquito eggs are placed in Millipore water containing liver powder to begin hatching (4 g into 400 mL). After the “daughter” plates are created using the robot, they are infested with 220 μL of the liver powder/larval mosquito mixture (about 1 day-old larvae). After plates are infested with mosquito larvae, a non-evaporative lid is used to cover the plate to reduce drying. Plates are held at room temperature for 3 days prior to grading. After 3 days, each well is observed and scored based on mortality. The results are indicated in the table entitled “Table ABC: Biological Results” (See Table Section).

Test [2] concerns Cabbage Looper (Trichoplusia ni, TRIPNI). Put plainly: Bioassays on Cabbage Looper (CL), 128-well diet tray assay. The settings on record: Trichoplusia ni. The method in brief: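 Diet tray, 2nd instar, 1–5 larvae/well; 50 μg/cm^2 compound surface-applied (acetone:water 90:10), dried; 8 wells/treatment; 25° C, 14:10 L:D, 5–7 d; % mortality, mean of 8 wells.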
In test [3] the test system is Beet Armyworm (Spodoptera exigua, LAPHEG). Kind of test: Bioassays on Beet Armyworm (BAW), 128-well diet tray assay. To be noted: Spodoptera exigua. Put shortly:
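Percent larval mortality, averaged across eight wells, scored after five to seven days at 25° C. under 14:10 light-dark. Each well held one to five second instars feeding on diet dosed at 50 μg/cm^2 with compound from 90:10 acetone-water, solvent dried off.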

Setting [4] is: Table ABC: Biological Results, species YFM.
Where [5] appears, read: Table ABC: Biological Results, species CL, read-out: CL.
[6] abbreviates: Table ABC: Biological Results, species BAW, read-out: BAW.
The mark [7] stands for this setting: Cabbage Looper, Table ABC / ABC-DP rating, read-out: CL rating.
The mark [8] stands for this setting: Beet Armyworm, Table ABC / ABC-DP rating, read-out: BAW rating.
Where [9] appears, read: Yellow Fever Mosquito, rating class.
Setting [10] is: Cabbage Looper, rating class, read-out: CL.
Where [11] appears, read: Beet Armyworm, rating class, read-out: BAW.

For the compound `Cc1c(Cl)cc(NC(=O)[C@H]2[C@H](c3ccc(F)c(Cl)c3)C2(Cl)Cl)cc1C(=O)Nc1ccc(F)cc1` (relative stereo) [F1189, trans-3-Chloro-5-(2,2-dichloro-3-(3-chloro-4-fluorophenyl)cyclopropane-1-carboxamido)-N-(4-fluorophenyl)-2-methylbenzamide], the YFM entry in test [1] (setting [4]) is reported as “A (80–100)”. Also, the pest or weed control at 50 µg/cm2 in test [2] (setting [5]) and in test [3] (setting [6]) was 50 to 100% in each case.

Regarding `C=CCC(=O)Nc1c(F)ccc(NC(=O)c2cc(NC(=O)[C@H]3[C@H](c4cc(F)cc(C(F)(F)F)c4)C3(Cl)Cl)ccc2Cl)c1F` [F1879, N-(3-(But-3-enamido)-2,4-difluorophenyl)-2-chloro-5-((1R,3R)-2,2-dichloro-3-(3-fluoro-5-(trifluoromethyl)phenyl)cyclopropane-1-carboxamido)benzamide], the YFM rating entry in test [1] (Yellow Fever Mosquito) was “A (80–100)”. The pest or weed control at 50 µg/cm2 in test [2] (setting [7]) and in test [3] (setting [8]) was 50 to 100% throughout.

Regarding `CN(NC(=O)c1cc(NC(=O)[C@H]2[C@H](c3cc(Cl)cc(Cl)c3)C2(Cl)Cl)ccc1Cl)c1cc(C(F)(F)F)ccn1` (relative stereo) [F2507, trans-2,2-Dichloro-N-(4-chloro-3-(2-methyl-2-(4-(trifluoromethyl)pyridin-2-yl)hydrazine-1-carbonyl)phenyl)-3-(3,5-dichlorophenyl)cyclopropane-1-carboxamide], in test [1] (Yellow Fever Mosquito), the YFM rating result is “A (80–100)”. The pest or weed control at 50 µg/cm2 in test [2] (setting [7]) and in test [3] (setting [8]) was 50 to 100% each time.

With `CC1(C(=O)Nc2c(F)ccc(NC(=O)c3cc(NC(=O)[C@H]4[C@H](c5ccc(F)c(C(F)(F)F)c5)C4(Cl)Cl)ccc3Cl)c2F)CC1` [F1362, 2-Chloro-5-((1R,3R)-2,2-dichloro-3-(4-fluoro-3-(trifluoromethyl)phenyl)cyclopropane-1-carboxamido)-N-(2,4-difluoro-3-(1-methylcyclopropane-1-carboxamido)phenyl)benzamide], the YFM result in test [1] (setting [4]) is on record as “A (80–100)”. Moreover, the pest or weed control at 50 µg/cm2 in test [2] (setting [5]) and in test [3] (setting [6]) was 50 to 100% throughout.

As for `Nc1c(F)ccc(NC(=O)c2cc(NC(=O)[C@H]3[C@H](c4cc(Cl)cc(S(F)(F)(F)(F)F)c4)C3(Cl)Cl)ccc2Cl)c1F` (relative stereo) [F1259, trans-N-(3-Amino-2,4-difluorophenyl)-2-chloro-5-(2,2-dichloro-3-(3-chloro-5-(pentafluoro-λ^6-sulfanyl)phenyl)cyclopropane-1-carboxamido)benzamide], the YFM result in test [1] (setting [4]) is recorded as “A (80–100)”. Also, the pest or weed control at 50 µg/cm2 in test [2] (setting [5]) and in test [3] (setting [6]) was 50 to 100% in each case.

For `O=C(Nc1ccc(F)c(NC(=O)C(F)F)c1F)c1cc(NC(=O)[C@H]2[C@H](c3cccc(Br)c3)C2(Cl)Cl)ccc1Cl` (relative stereo) [F1600, trans-5-(3-(3-Bromophenyl)-2,2-dichlorocyclopropane-1-carboxamido)-2-chloro-N-(3-(2,2-difluoroacetamido)-2,4-difluorophenyl)benzamide], the YFM entry in test [1] (setting [9]) is “A (80–100)”. The pest or weed control at 50 µg/cm2 in test [2] (setting [10]) and in test [3] (setting [11]) was 50 to 100% in each case.

Consider `O=C(NNCC1CC1)c1cc(NC(=O)[C@H]2[C@H](c3cc(Cl)cc(Cl)c3)C2(Cl)Cl)ccc1Cl` (relative stereo) [F2549, trans-2,2-Dichloro-N-(4-chloro-3-(2-(cyclopropylmethyl)hydrazine-1-carbonyl)phenyl)-3-(3,5-dichlorophenyl)cyclopropane-1-carboxamide], for which the YFM rating entry in test [1] (Yellow Fever Mosquito) is listed as “A (80–100)”. The pest or weed control at 50 µg/cm2 in test [2] (setting [7]) and in test [3] (setting [8]) was 50 to 100% throughout.

Regarding `O=C(NNCCC(F)(F)F)c1cc(NC(=O)[C@H]2[C@H](c3cc(Cl)cc(Cl)c3)C2(Cl)Cl)ccc1Cl` (relative stereo) [F2550, trans-2,2-Dichloro-N-(4-chloro-3-(2-(3,3,3-trifluoropropyl)hydrazine-1-carbonyl)phenyl)-3-(3,5-dichlorophenyl)cyclopropane-1-carboxamide], the YFM rating result in test [1] (Yellow Fever Mosquito) was “B (More than 0 – Less than 80)”. Besides, the pest or weed control at 50 µg/cm2 in test [2] (setting [7]) was 50 to 100%; in test [3] (setting [8]) it was 0 to 50%.

For `O=C(Nc1ccc(F)c(NC(=O)C(F)F)c1F)c1cc(NC(=O)[C@H]2[C@H](c3cccc(Cl)c3)C2(Cl)Cl)ccc1Cl` (relative stereo) [F1601, trans-2-Chloro-5-(2,2-dichloro-3-(3-chlorophenyl)cyclopropane-1-carboxamido)-N-(3-(2,2-difluoroacetamido)-2,4-difluorophenyl)benzamide], the YFM result in test [1] (setting [9]) is “A (80–100)”. For the same compound, the pest or weed control at 50 µg/cm2 in test [2] (setting [10]) and in test [3] (setting [11]) was 50 to 100% in each case.

In the case of `Nc1cc(NC(=O)c2cc(NC(=O)[C@H]3[C@H](c4ccc(F)c(Cl)c4)C3(Cl)Cl)ccc2Cl)ccc1Cl` (relative stereo) [F1365, trans-N-(3-Amino-4-chlorophenyl)-2-chloro-5-(2,2-dichloro-3-(3-chloro-4-fluorophenyl)cyclopropane-1-carboxamido)benzamide], the YFM entry in test [1] (setting [4]) is given as “A (80–100)”. Moreover, the pest or weed control at 50 µg/cm2 in test [2] (setting [5]) and in test [3] (setting [6]) was 50 to 100% each time.

Consider `O=C(Nc1ccc(F)c(NC(=O)C(Br)Br)c1F)c1cc(NC(=O)[C@H]2[C@H](c3ccc(F)c(C(F)(F)F)c3)C2(Cl)Cl)ccc1Cl` [F1355, 2-Chloro-N-(3-(2,2-dibromoacetamido)-2,4-difluorophenyl)-5-((1R,3R)-2,2-dichloro-3-(4-fluoro-3-(trifluoromethyl)phenyl)cyclopropane-1-carboxamido)benzamide], for which, in test [1] (setting [4]), the YFM entry is recorded as “A (80–100)”. The pest or weed control at 50 µg/cm2 in test [2] (setting [5]) and in test [3] (setting [6]) was 50 to 100% throughout.

`Nc1c(F)ccc(NC(=O)c2cc(NC(=O)[C@H]3[C@H](c4ccc(Br)cc4)C3(Cl)Cl)ccc2Cl)c1F` (relative stereo) [F1591, trans-N-(3-Amino-2,4-difluorophenyl)-5-(3-(4-bromophenyl)-2,2-dichlorocyclopropane-1-carboxamido)-2-chlorobenzamide]: the YFM result in test [1] (setting [9]) is reported as “A (80–100)”. Moreover, the pest or weed control at 50 µg/cm2 in test [2] (setting [10]) and in test [3] (setting [11]) was 50 to 100% throughout.

As to `O=C(Nc1ccc(F)c(NCCF)c1F)c1cc(NC(=O)[C@H]2[C@H](c3ccc(F)c(C(F)(F)F)c3)C2(Cl)Cl)ccc1Cl` [F1826, 2-Chloro-5-((1R,3R)-2,2-dichloro-3-(4-fluoro-3-(trifluoromethyl)phenyl)cyclopropane-1-carboxamido)-N-(2,4-difluoro-3-((2-fluoroethyl)amino)phenyl)benzamide], in test [1] (Yellow Fever Mosquito), the YFM rating result was “A (80–100)”. The pest or weed control at 50 µg/cm2 in test [2] (setting [7]) and in test [3] (setting [8]) was 50 to 100% each time.

Regarding `O=C(NCC(F)(F)F)c1cc(NC(=O)[C@H]2[C@H](c3cc(C(F)(F)F)ccc3Cl)C2(Cl)Cl)ccc1Cl` (relative stereo) [F2001, trans-2-Chloro-5-(2,2-dichloro-3-(2-chloro-5-(trifluoromethyl)phenyl)-cyclopropane-1-carboxamido)-N-(2,2,2-trifluoroethyl)benzamide], in test [1] (Yellow Fever Mosquito), the YFM rating entry is “A (80–100)”. For the same compound, the pest or weed control at 50 µg/cm2 in test [2] (setting [7]) and in test [3] (setting [8]) was 50 to 100% in each case.

As for `O=C(Nc1ccc(F)c(NC(=O)C2CCCO2)c1F)c1cc(NC(=O)[C@H]2[C@H](c3cc(F)cc(C(F)(F)F)c3)C2(Cl)Cl)ccc1Cl` (stereo partly drawn) [F1706, N-(3-(2-Chloro-5-((1R,3R)-2,2-dichloro-3-(3-fluoro-5-(trifluoromethyl)phenyl)cyclopropane-1-carboxamido)benzamido)-2,6-difluorophenyl)tetrahydrofuran-2-carboxamide], in test [1] (setting [9]), the YFM entry was “A (80–100)”. Further, the pest or weed control at 50 µg/cm2 in test [2] (setting [10]) and in test [3] (setting [11]) was 50 to 100% throughout.

On to `O=C(NCC(F)(F)C(F)(F)F)c1cc(NC(=O)[C@H]2[C@H](c3ccc(F)c(Cl)c3)C2(Cl)Cl)cc(C(F)(F)F)c1Cl` (relative stereo) [F2056, trans-2-Chloro-5-(2,2-dichloro-3-(3-chloro-4-fluorophenyl)cyclopropane-1-carboxamido)-N-(2,2,3,3,3-pentafluoropropyl)-3-(trifluoromethyl)benzamide], for which the YFM rating entry in test [1] (Yellow Fever Mosquito) is recorded as “A (80–100)”. The pest or weed control at 50 µg/cm2 in test [2] (setting [7]) and in test [3] (setting [8]) was 50 to 100% each time.

The values above are taken from patent publication US20250228239A1, “MOLECULES HAVING PESTICIDAL UTILITY, AND INTERMEDIATES, COMPOSITIONS, AND PROCESSES, RELATED THERETO” (priority 2024, published 2025).
